Reference: ChEMBL document CHEMBL1127266, “N-sulfonamides of benzopyran-related potassium channel openers: Conversion of glyburide insensitive smooth muscle relaxants to potent smooth muscle contractors” (Bioorg Med Chem Lett, 1994)
Where “and” joins values, the source holds several entries; their conditions need not be identical. Identical values can stand only once.

organism: Rattus norvegicus; test: In vitro evaluation for concentration to inhibit KCI (25 mM ) induced contractions of rat aorta; type: functional; settings: not given

IC50 [µM]	SMILES
8	CC1(C)Oc2ccc(OC(F)(F)F)cc2[C@@H](NS(=O)(=O)C(F)(F)F)[C@@H]1O (stereo in doubt; 1) [listing 1 of 2 here]
2	CC1(C)Oc2ccc(OC(F)(F)F)cc2[C@@H](NS(=O)(=O)C(F)(F)F)[C@@H]1O (stereo in doubt; 8) [listing 1 of 2 here]

same assay, conditions: Rattus norvegicus, Aorta

IC50 [µM]	SMILES
0.06	CC1(C)Oc2ccc(C#N)cc2[C@H](N2CCCC2=O)[C@H]1O (single isomer, unassigned) [(-)-CROMAKALIM]
10.7	CC1(C)C[C@H](NS(=O)(=O)C(F)(F)F)c2cc(OC(F)(F)F)ccc2O1
2.6	CC1(C)Oc2ccc(OC(F)(F)F)cc2[C@H](NS(=O)(=O)C(F)(F)F)[C@H]1O
0.013	CC1(C)Oc2ccc(OC(F)(F)F)cc2[C@@H](N2Cc3ccccc3C2=O)[C@@H]1O [CELIKALIM]

organism: Rattus norvegicus; test: In vitro evaluation for concentration to inhibit KCI (15 mM ) induced contractions of rat bladder; type: functional; settings: not given

IC50 [µM]	SMILES
3.6	CC1(C)Oc2ccc(OC(F)(F)F)cc2[C@@H](NS(=O)(=O)C(F)(F)F)[C@@H]1O (stereo in doubt; 8) [listing 1 of 2 here]

same assay, conditions: Rattus norvegicus

IC50 [µM]	SMILES
0.15	CC1(C)Oc2ccc(C#N)cc2[C@H](N2CCCC2=O)[C@H]1O (single isomer, unassigned) [(-)-CROMAKALIM]
6.2	CC1(C)C[C@H](NS(=O)(=O)C(F)(F)F)c2cc(OC(F)(F)F)ccc2O1
7.1	CC1(C)Oc2ccc(OC(F)(F)F)cc2[C@H](NS(=O)(=O)C(F)(F)F)[C@H]1O
4.6	CC1(C)Oc2ccc(OC(F)(F)F)cc2[C@@H](NS(=O)(=O)C(F)(F)F)[C@@H]1O (stereo in doubt; 1) [listing 1 of 2 here]
0.03	CC1(C)Oc2ccc(OC(F)(F)F)cc2[C@@H](N2Cc3ccccc3C2=O)[C@@H]1O [CELIKALIM]

organism: Rattus norvegicus; test: Percent glyburide reversibility as potassium channel (K ATP) opening activity assay; type: functional; settings: not given

SMILES	GR
CC1(C)Oc2ccc(OC(F)(F)F)cc2[C@@H](NS(=O)(=O)C(F)(F)F)[C@@H]1O (stereo in doubt; 8) [listing 2 of 2 here]	0%
CC1(C)Oc2ccc(C#N)cc2[C@H](N2CCCC2=O)[C@H]1O (single isomer, unassigned) [(-)-CROMAKALIM]	68% and 75%
CC1(C)Oc2ccc(OC(F)(F)F)cc2[C@@H](NS(=O)(=O)C(F)(F)F)[C@@H]1O (stereo in doubt; 1) [listing 2 of 2 here]	14% and 2%
CC1(C)C[C@H](NS(=O)(=O)C(F)(F)F)c2cc(OC(F)(F)F)ccc2O1	41%
CC1(C)Oc2ccc(OC(F)(F)F)cc2[C@H](NS(=O)(=O)c2ccc([N+](=O)[O-])cc2)[C@H]1O	0%
CC1(C)Oc2ccc(OC(F)(F)F)cc2[C@@H](NS(C)(=O)=O)[C@@H]1O	8%
CC1(C)Oc2ccc(OC(F)(F)F)cc2[C@H](NS(=O)(=O)C(F)(F)F)[C@H]1O	0%
CC1(C)Oc2ccc(OC(F)(F)F)cc2[C@@H](N2Cc3ccccc3C2=O)[C@@H]1O [CELIKALIM]	80% and 55%

organism: Rattus norvegicus; test: Percent activity at 30 uM as the increase (+) and/or decrease (-) in the contractile response for each individual experiment in rat bladder; type: functional; design: scale not given: the % may be the effect or the level left; settings: not given

SMILES	Activity [%]
CC1(C)Oc2ccc(OC(F)(F)F)cc2[C@@H](NS(=O)(=O)c2ccc([N+](=O)[O-])cc2)[C@@H]1O	195
CC1(C)Oc2ccc(OC(F)(F)F)cc2[C@@H](NS(=O)(=O)c2cccnc2)[C@@H]1O	133
CC1(C)Oc2ccc(OC(F)(F)F)cc2[C@@H](NS(=O)(=O)c2ccccc2)[C@@H]1O	44
CN([C@@H]1c2cc(OC(F)(F)F)ccc2OC(C)(C)[C@H]1O)S(=O)(=O)C(F)(F)F	352
CC1(C)Oc2ccc(OC(F)(F)F)cc2[C@H](NS(=O)(=O)c2ccc([N+](=O)[O-])cc2)[C@H]1O	4.68
CC1(C)Oc2ccc(OC(F)(F)F)cc2[C@@H](NS(=O)(=O)c2cccc3ccccc23)[C@@H]1O	52
CC1(C)Oc2ccc(OC(F)(F)F)cc2[C@@H](NS(C)(=O)=O)[C@@H]1O	3
CC1(C)Oc2ccc(OC(F)(F)F)cc2[C@@H](NS(=O)(=O)CCl)[C@@H]1O	39
